# Source: patent publication US20120302569A1, “PHENYL-THIAZOLYL INHIBITORS OF PRO-MATRIX METALLOPROTEINASE ACTIVATION” (priority 2011, published 2012)
# Biological target: T1, MMP9 mediated gelatinase activity (Rattus norvegicus, UniProt P50282)
# T1 construct: from tissue; host or cells: liver cryosections of female Lewis rats
# Test: In situ zymography of gelatinase activity in livers of SCW-induced rats
# Assay type: in vivo
# Parameters: reduction of liver gelatinase activity: reference not given here
# Conditions: for Intensity Mean / Intensity Rat 1 / Intensity Rat 2 / Intensity Rat 3: Day 25-28, liver
# Source text: In situ zymography provides an alternative approach to assess active MMP9 in tissues (J Histochem Cytochem; 2004; 52:711-722). Tissue sections are overlain with fluorescein-conjugated gelatin wherein the conjugation is sufficiently dense to cause the fluorescein to be dye-quenched (DQ). Proteolytic degradation of the DQ-gelatin releases the fluorescein from the quenching effect giving rise to bright green fluorescence at the site of degradation. Because in situ zymography requires the use of frozen sections, calcified tissues are problematic. However, an additional feature of the SCW arthritis model is the development of hepatic granulomatous disease (J Immunol; 1986; 137:2199-2209), and MMP9 reportedly plays a role in macrophage recruitment in the granulomas response to mycobacteria (Infect Immun; 2006; 74:6135-6144). Consequently, granulomatous livers from SCW-treated rats were assessed for active MMP9 by in situ zymography.
# As described above, Female Lewis (LEW/N) rats, 5-6 weeks of age (80-100 g) were injected (i.p.) with saline or SCW PG-PS. On day 28, when the granulomatous response was well established, animals were sacrificed and livers were frozen in OCT cryo-sectioning medium and 10 μm sections were cut on a Cryome HM 500 M cryotome and mounted on glass microscope slides. Sections were air dried briefly. MMP9 was confirmed as the source of the gelatinase activity in the liver by treating liver sections with monoclonal antibodies directed against the active site of the two major gelatinases MMP9 and MMP2. Liver sections overlain with 50 μL of 100 μg/mL neutralizing mouse monoclonal antibodies directed against MMP9 (Calbiochem, clone 6-6B), or MMP2 (Millipore, clone CA-4001), or with PBS for 1 hr at room temperature. Tissues were rinsed once with PBS, blotted, and briefly air dried and then overlain with DQ-gelatin (Invitrogen) dissolved to 1 mg/mL in deionized water and then diluted 1:10 in 1% wt/vol low gelling point agarose type VII (Sigma) in PBS. The sections were covered with coverslips, incubated in the dark at room temperature for 20 min, and imaged on an Olympus IX80 inverted microscope fitted with fluorescence optics, using SlideBook™ imaging software (Intelligent Imaging Innovations, Inc., Philadelphia, Pa.; version 5.0). Fluorescence intensity was determined (Table 8). When compared to a saline-treated rat, gelatinase activity was abundantly expressed in granulomatous liver sections obtained from a rat with SCW arthritis.
# Next, liver in situ zymography was used to assess the relative presence of active MMP9 in rats dosed with vehicle vs. Compound α. Female Lewis (LEW/N) rats, 5-6 weeks of age (80-100 g) were injected (i.p.) with saline or SCW PG-PS. Commencing on day 25, randomized groups of rats (n=3 rats/group) received vehicle or 20 or 50 mg/kg Compound α BID by oral gavage.
# Vehicle consisted of an aqueous mixture containing 2% (v:v) N-methylpyrrolidone, 5% (v:v) glycerine, and 20% (w:v) captisol. Treatment continued daily through the morning of day 28. Four hrs after the AM dose on day 28, rats were sacrificed and livers assessed for active MMP9 by in situ zymography (Table 9). Gelatinase activity was increased markedly in SCW-induced rats, but activity was reduced by approximately 80% in animals treated with 50 mg/kg Compound α.
# T1 sequence (P50282 108-708): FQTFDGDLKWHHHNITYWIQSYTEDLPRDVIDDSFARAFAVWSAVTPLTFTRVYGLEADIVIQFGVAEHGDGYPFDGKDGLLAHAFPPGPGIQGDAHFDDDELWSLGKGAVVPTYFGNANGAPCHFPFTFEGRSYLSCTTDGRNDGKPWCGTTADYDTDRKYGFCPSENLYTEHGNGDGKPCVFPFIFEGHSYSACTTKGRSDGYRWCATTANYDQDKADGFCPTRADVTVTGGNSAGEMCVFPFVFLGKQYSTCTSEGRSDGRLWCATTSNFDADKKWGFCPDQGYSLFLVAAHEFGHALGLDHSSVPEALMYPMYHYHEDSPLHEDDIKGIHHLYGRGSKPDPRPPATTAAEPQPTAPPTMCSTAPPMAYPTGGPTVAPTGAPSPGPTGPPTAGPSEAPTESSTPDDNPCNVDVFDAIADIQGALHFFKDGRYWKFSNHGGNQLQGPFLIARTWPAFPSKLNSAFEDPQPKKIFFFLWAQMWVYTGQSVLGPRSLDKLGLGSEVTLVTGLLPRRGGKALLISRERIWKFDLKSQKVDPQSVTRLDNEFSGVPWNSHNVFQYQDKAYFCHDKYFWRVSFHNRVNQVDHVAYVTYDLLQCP
structure (smiles),measurement,setting,value
"Cc1nc(C)c(-c2csc(Nc3cc(S(N)(=O)=O)ccc3OC(C)C)n2)s1 [Compound α, 3-(2′,4′-Dimethyl-[4,5′]bithiazolyl-2-ylamino)-4-isopropoxy-benzenesulfonamide.HBr]",Intensity Mean,20 mg/kg BID oral,55.2 RLU × 10^6
same,Intensity Rat 1,20 mg/kg BID oral,43.0 RLU × 10^6
same,Intensity Rat 2,20 mg/kg BID oral,69.0 RLU × 10^6
same,Intensity Rat 3,20 mg/kg BID oral,53.7 RLU × 10^6
same,reduction of liver gelatinase activity,"50 mg/kg BID oral, Day 25-28",approximately 80%
same,Intensity Mean,50 mg/kg BID oral,11.1 RLU × 10^6
same,Intensity Rat 1,50 mg/kg BID oral,3.2 RLU × 10^6
same,Intensity Rat 2,50 mg/kg BID oral,25.6 RLU × 10^6
same,Intensity Rat 3,50 mg/kg BID oral,4.5 RLU × 10^6
